The structures appear in SMILES notation. Calls of active or inactive are those of the source. A value given as a limit tells only on which side of the number the result lay.

The text below walks through data of ChEMBL document CHEMBL1201862, “PubChem BioAssay data set” (2004).

One assay deals with Aspartyl aminopeptidase (Plasmodium falciparum 3D7, UniProt Q8I2J3).
Another assay addresses Procathepsin L (Homo sapiens, UniProt P07711).
Assay [1] concerns the target Multidrug resistance protein CDR1 (Candida albicans, UniProt P43071). The assay is described as follows: inhibition of Nile Red efflux via Candida CDR1 – S. cerevisiae AD1-8u, singleplex, Cherry Pick1 hits, dose response (AID 588606). In kind it is functional.
Assay [2] addresses Tyrosine-protein kinase receptor TYRO3 (Homo sapiens, UniProt Q06418). It is filed as functional.
Assay [3] concerns the target Dual specificity tyrosine-phosphorylation-regulated kinase 1B (Homo sapiens, UniProt Q9Y463). Nature of the assay: Navigating the Kinome. Panel member name: DYRK1B. In kind it is functional.
Assay [4] deals with Casein kinase I isoform alpha (Homo sapiens, UniProt P48729). In kind it is functional.
For assay [5], the target named is T1, Sentrin-specific protease 7 (Homo sapiens, UniProt Q9BQF6).
T1 sequence (Q9BQF6 whole entry): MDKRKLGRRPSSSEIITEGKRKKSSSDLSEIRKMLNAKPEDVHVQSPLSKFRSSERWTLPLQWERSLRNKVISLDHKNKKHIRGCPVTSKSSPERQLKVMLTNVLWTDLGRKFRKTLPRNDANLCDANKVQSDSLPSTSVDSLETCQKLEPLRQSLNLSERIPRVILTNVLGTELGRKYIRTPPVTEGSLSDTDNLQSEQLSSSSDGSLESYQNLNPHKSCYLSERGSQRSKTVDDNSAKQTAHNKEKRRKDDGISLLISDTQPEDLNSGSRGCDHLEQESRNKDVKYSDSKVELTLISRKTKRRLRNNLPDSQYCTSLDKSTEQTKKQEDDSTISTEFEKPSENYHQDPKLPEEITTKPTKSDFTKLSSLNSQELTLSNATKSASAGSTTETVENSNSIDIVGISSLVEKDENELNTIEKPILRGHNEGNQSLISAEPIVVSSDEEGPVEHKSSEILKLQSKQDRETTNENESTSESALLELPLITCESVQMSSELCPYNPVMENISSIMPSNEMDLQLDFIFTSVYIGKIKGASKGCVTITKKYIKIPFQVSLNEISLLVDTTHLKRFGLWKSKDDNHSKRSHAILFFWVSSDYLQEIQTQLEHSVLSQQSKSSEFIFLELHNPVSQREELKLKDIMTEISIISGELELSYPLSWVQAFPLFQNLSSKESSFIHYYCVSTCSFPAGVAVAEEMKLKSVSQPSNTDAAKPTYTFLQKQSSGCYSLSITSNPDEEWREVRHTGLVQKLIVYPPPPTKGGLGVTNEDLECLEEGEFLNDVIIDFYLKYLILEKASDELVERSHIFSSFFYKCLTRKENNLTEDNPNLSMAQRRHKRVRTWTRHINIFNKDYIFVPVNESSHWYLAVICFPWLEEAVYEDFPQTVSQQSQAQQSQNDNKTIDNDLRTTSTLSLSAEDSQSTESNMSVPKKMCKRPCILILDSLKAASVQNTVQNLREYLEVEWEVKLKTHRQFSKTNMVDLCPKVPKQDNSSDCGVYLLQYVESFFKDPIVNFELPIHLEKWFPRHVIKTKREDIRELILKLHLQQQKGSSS
Nature of the assay: inhibition of human SENP7 cleavage activity – biochemical, luminescence, set 2, SAR follow-up (AID 588600). It is filed as functional.

Assay [6] addresses T2, Caspase-3 (Homo sapiens, UniProt P42574).
T2 sequence (P42574 whole entry): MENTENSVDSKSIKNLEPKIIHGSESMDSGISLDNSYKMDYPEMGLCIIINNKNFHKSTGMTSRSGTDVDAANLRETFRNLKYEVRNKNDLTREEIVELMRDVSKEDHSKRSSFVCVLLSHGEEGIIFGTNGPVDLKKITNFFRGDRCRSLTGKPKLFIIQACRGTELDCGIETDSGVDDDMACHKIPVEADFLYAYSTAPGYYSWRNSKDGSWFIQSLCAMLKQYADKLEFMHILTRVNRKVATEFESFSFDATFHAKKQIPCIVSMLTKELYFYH
Nature of the assay: inhibition of recombinant caspase-3 activity – biochemical, luminescence, set 2, selectivity assay for SENP protease inhibitor project, SAR follow-up (AID 588599). It is filed as functional.

For assay [7], the target named is T3, Sentrin-specific protease 6 (Homo sapiens, UniProt Q9GZR1).
T3 sequence (Q9GZR1 whole entry): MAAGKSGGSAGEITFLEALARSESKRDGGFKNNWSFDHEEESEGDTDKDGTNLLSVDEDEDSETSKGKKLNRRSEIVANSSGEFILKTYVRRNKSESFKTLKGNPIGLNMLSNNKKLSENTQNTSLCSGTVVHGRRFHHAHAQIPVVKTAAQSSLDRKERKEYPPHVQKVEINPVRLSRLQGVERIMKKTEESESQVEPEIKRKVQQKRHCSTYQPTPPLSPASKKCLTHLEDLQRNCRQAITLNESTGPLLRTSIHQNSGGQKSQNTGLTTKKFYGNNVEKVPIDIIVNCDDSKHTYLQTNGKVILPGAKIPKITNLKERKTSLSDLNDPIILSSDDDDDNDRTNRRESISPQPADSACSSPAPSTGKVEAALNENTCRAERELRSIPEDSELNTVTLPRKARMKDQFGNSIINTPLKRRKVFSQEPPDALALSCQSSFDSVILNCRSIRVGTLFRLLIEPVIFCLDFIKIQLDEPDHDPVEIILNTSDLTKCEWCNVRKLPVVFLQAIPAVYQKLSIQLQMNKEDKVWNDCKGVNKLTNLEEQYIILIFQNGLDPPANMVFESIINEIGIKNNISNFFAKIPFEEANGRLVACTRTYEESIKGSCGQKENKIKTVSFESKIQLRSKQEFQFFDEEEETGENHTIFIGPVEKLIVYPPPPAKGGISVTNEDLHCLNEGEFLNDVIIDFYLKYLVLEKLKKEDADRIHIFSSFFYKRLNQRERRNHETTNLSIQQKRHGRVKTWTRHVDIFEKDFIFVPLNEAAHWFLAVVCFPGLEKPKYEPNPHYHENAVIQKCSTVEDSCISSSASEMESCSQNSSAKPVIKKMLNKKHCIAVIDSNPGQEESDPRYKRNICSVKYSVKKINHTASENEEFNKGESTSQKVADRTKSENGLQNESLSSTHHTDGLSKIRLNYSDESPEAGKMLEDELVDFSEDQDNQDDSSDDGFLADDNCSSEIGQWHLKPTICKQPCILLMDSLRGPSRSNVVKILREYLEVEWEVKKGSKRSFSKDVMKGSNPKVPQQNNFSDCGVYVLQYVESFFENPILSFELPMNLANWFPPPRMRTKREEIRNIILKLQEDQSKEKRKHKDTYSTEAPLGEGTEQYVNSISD
The assay is described as follows: inhibition of human SENP6 catalytic domain – biochemical, luminescence, set 2, SAR follow-up (AID 588598). It is filed as functional.

The target of assay [8] is T4, Sentrin-specific protease 8 (Homo sapiens, UniProt Q96LD8).
T4 sequence (Q96LD8 whole entry): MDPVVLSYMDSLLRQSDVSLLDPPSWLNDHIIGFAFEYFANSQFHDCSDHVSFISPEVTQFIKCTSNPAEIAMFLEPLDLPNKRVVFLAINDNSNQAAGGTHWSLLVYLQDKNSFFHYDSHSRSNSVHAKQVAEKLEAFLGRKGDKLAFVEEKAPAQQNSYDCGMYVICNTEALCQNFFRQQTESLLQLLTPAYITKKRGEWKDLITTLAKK
Nature of the assay: inhibition of sentrin protease 8 – biochemical, luminescence, set 2, SAR follow-up (AID 588601). In kind it is functional.

A further assay has as its target Activin receptor type-1 (Homo sapiens, UniProt Q04771). Nature of the assay: Navigating the Kinome. Panel member name: ACVR1. It is filed as functional.
Assay [9] has as its target Insulin-like growth factor 1 receptor (Homo sapiens, UniProt P08069). The assay is described as follows: Navigating the Kinome. Panel member name: IGF1R. In kind it is functional.
Assay [10] has as its target Tyrosine-protein kinase ABL1 (Homo sapiens, UniProt P00519). It is filed as functional.
Another assay relates to NIH3T3. Nature of the assay: NIH-3T3 viability with fluconazole co-treatment – cell-based, Alamar Blue, dry powder, set 2, cytotoxicity control for antifungal resistance reversal project, dose response (AID 488911). The conditions noted are these: Mus musculus. It is filed as functional.
A further assay has as its system Candida albicans. Nature of the assay: resistant Candida growth with fluconazole co-treatment – CaCi-8 strain, Alamar Blue, dry powder, set 2, dose response (AID 488909). It is filed as functional, organism-based. On the technique in general: The colour change of resazurin is a common sign of viable cells or microbes.
Assay [11] addresses T5, High affinity choline transporter 1 (Homo sapiens, UniProt Q9GZV3).
T5 sequence (Q9GZV3 whole entry): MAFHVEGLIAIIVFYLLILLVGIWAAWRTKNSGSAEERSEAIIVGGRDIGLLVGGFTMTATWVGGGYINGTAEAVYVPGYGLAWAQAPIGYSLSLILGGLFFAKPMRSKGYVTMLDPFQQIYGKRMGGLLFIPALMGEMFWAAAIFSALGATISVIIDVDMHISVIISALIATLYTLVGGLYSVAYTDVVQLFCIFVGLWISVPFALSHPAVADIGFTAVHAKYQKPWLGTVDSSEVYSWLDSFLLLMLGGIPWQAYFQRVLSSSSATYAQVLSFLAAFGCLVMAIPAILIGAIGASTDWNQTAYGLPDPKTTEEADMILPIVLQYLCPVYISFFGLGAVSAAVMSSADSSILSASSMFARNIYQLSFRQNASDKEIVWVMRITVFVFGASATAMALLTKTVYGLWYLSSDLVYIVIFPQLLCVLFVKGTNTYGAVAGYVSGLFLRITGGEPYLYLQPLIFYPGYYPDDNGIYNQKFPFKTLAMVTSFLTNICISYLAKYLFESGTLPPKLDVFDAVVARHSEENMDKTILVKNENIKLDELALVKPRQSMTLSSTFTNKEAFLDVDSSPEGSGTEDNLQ
Nature of the assay: human choline transporter potentiators, potency – cell-based, 10-point CRC, membrane potential dye, dose response (AID 602376). It is filed as functional.

Assay [12] deals with T4, Sentrin-specific protease 8. The assay is described as follows: inhibition of human SENP8 cleavage activity – biochemical, luminescence, SAR follow-up (AID 504501). It is filed as functional.
Assay [13] concerns the target T2, Caspase-3. Nature of the assay: SAR Analysis of small molecule inhibitors of Sentrin-specific proteases (SENPs) using a Caspase-3 Selectivity assay. [Related pubchem assays (depositor defined):AID2540, AID2599, AID434973, AID489001]. In kind it is functional.
Assay [14] has as its target T3, Sentrin-specific protease 6. The assay is described as follows: SAR Analysis of small molecule inhibitors of Sentrin-specific protease 6 (SENP6) using a Luminescent assay. [Related pubchem assays (depositor defined):AID2582, AID2599]. In kind it is functional.
Assay [15] concerns the target T1, Sentrin-specific protease 7. Nature of the assay: inhibition of human SENP7 cleavage activity – biochemical, luminescence, SAR follow-up (AID 504497). In kind it is functional.

Sequence of Dual specificity tyrosine-phosphorylation-regulated kinase 1B (Q9Y463 whole entry, canonical isoform): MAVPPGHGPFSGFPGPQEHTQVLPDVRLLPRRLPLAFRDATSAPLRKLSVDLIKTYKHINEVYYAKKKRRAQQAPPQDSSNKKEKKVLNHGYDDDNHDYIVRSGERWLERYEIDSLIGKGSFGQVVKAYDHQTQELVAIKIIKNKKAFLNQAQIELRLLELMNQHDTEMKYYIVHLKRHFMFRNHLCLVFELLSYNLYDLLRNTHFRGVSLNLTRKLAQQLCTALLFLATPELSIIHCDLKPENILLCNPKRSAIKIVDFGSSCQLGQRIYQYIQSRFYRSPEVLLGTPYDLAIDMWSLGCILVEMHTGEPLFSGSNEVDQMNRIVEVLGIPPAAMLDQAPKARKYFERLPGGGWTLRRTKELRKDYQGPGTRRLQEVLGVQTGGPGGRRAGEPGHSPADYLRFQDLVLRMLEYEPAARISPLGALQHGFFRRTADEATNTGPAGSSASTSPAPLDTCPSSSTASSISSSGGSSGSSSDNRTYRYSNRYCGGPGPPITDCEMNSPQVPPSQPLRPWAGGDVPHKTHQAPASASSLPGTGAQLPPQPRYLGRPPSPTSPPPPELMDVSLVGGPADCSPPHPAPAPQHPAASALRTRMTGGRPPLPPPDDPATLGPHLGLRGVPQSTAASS
Sequence of Multidrug resistance protein CDR1 (P43071 whole entry, looked up): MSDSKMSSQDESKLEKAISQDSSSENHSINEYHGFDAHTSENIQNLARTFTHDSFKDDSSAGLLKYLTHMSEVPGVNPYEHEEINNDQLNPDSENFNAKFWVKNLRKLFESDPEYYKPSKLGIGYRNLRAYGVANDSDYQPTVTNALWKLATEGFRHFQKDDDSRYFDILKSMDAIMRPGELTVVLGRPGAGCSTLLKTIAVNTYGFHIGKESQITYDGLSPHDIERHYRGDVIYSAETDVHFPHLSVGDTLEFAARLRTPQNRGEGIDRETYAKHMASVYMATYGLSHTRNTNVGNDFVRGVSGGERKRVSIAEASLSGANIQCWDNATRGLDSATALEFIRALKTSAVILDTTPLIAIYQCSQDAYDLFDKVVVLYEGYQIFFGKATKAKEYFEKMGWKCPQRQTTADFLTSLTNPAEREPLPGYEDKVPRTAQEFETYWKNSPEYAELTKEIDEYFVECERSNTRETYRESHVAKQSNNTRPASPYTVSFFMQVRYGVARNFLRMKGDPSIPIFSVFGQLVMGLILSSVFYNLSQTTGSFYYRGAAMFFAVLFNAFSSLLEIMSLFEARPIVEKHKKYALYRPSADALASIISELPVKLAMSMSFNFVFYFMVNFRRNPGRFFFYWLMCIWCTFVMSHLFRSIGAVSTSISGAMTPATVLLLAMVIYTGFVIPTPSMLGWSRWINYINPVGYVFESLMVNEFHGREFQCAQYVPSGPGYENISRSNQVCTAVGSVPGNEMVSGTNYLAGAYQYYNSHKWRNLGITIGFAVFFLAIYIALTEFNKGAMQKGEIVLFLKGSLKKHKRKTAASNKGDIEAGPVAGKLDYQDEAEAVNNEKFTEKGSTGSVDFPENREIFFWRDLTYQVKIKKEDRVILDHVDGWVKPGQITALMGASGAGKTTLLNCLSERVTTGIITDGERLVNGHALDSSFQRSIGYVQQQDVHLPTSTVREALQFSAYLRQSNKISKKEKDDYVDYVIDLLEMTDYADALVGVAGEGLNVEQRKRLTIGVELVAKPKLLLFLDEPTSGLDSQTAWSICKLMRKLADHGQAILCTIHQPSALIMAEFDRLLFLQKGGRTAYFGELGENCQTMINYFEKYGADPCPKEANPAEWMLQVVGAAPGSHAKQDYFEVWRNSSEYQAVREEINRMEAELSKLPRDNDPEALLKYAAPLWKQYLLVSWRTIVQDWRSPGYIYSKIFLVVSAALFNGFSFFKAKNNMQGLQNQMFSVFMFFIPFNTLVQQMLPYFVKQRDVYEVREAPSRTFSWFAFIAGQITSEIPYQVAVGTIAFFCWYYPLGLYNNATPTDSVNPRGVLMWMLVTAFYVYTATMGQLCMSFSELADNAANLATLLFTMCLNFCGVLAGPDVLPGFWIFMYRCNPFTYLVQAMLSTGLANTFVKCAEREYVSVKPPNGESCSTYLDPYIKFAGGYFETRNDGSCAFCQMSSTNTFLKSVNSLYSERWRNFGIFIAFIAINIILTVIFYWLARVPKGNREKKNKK
Sequence of Aspartyl aminopeptidase (Q8I2J3 whole entry): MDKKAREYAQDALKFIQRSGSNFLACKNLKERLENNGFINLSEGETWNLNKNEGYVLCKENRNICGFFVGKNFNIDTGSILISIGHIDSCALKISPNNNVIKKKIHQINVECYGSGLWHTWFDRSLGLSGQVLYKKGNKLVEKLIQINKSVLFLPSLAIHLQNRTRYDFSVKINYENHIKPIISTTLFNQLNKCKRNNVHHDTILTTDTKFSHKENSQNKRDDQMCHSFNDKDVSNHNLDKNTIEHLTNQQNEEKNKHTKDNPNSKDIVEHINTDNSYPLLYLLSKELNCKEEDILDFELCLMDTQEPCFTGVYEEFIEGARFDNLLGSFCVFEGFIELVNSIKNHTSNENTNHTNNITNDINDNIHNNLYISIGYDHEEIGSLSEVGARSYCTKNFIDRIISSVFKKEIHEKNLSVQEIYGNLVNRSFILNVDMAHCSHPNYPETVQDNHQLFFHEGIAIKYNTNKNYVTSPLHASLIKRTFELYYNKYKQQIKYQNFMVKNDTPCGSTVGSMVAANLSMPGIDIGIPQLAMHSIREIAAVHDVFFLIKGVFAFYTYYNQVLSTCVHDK
Sequence of Casein kinase I isoform alpha (P48729 whole entry, canonical isoform): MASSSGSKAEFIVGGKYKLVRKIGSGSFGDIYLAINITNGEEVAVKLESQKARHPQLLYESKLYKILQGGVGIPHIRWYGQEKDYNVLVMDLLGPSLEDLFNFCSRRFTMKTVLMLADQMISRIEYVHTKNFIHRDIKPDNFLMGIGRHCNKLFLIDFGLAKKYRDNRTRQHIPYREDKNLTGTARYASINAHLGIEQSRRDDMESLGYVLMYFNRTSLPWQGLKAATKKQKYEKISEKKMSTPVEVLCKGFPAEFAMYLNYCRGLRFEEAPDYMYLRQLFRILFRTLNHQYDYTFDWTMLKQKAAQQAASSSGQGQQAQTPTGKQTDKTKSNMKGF
Sequence of Tyrosine-protein kinase ABL1 (P00519 whole entry): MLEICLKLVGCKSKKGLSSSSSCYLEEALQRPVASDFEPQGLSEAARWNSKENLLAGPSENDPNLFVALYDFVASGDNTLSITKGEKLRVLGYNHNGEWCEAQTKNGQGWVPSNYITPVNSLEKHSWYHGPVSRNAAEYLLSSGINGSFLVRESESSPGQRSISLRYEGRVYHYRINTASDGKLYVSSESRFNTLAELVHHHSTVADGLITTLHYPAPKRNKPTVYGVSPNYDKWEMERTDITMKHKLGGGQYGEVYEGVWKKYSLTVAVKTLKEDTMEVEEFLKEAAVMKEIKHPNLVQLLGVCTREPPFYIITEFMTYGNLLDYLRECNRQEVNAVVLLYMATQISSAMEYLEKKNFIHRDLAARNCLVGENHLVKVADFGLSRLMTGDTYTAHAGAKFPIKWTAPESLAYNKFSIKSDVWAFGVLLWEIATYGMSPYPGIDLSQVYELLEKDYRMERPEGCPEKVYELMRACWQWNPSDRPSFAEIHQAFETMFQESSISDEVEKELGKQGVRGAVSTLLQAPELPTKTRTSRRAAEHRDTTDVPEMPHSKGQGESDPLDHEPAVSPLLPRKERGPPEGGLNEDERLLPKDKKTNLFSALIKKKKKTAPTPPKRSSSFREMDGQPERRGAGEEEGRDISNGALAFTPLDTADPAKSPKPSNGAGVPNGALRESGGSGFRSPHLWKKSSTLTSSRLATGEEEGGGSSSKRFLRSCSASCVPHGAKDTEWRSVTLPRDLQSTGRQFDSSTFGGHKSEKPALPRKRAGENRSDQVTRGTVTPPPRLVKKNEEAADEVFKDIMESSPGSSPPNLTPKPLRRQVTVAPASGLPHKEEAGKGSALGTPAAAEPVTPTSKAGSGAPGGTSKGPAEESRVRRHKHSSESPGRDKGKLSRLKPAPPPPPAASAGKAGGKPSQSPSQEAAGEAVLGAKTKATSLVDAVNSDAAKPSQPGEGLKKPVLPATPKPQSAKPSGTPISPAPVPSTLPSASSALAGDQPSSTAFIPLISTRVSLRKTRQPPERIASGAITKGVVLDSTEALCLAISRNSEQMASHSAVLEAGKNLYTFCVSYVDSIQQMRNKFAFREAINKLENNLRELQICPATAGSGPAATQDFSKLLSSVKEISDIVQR
Sequence of Tyrosine-protein kinase receptor TYRO3 (Q06418 whole entry): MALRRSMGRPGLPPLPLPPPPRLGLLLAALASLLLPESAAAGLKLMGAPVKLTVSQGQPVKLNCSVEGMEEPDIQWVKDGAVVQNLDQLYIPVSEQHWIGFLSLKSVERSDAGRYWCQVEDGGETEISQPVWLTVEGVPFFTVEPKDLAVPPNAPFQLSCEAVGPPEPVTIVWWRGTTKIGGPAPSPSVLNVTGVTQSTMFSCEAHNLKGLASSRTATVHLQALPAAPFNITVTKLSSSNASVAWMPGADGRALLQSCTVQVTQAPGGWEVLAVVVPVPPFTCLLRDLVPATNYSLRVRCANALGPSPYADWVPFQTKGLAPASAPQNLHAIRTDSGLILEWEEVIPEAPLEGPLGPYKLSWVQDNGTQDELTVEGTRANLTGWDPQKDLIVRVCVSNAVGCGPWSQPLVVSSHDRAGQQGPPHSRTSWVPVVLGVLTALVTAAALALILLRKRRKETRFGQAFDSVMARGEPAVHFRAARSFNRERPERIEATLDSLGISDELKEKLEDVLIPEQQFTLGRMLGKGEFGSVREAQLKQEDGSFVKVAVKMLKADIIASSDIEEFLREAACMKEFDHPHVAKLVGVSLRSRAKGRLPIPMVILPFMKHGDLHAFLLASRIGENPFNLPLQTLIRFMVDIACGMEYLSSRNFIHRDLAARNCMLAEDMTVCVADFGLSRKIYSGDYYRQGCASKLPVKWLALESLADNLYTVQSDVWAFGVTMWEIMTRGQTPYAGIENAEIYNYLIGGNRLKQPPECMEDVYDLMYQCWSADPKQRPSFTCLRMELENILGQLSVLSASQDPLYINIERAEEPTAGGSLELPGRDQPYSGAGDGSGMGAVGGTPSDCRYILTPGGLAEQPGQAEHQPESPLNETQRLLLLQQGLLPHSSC

`O=C1NC(=S)NC(=O)C1=Cc1cc2ccccc2[nH]1`: the results for the IC50 on Aspartyl aminopeptidase and on Procathepsin L were 1.67 µM (active) and > 59.6 µM (not active), respectively. Further, the EC50 in assay [1] was 6 µM (active).

With `NC(=O)c1ccccc1-c1ncc[nH]1`, the Ki in assay [2] was 79.4 µM (active); in assay [3], 63.1 µM (active); in assay [4], 50.1 µM (active).

For `O=C(NCC[S+]([O-])c1c(-c2ccc(F)cc2)[nH]c2ccccc12)C(=O)c1c[nH]c2ccccc12` (stereo unspecified), the IC50 in assay [5] was 88.8 µM (active); at Caspase-3 [6], 50.7 µM (active); in assay [7], 94.5 µM (active); in [8], 84 µM (active).

Turning to `CC(C)(C)c1nc2c3ccc(F)cc3c3c(=O)[nH]ccc3c2[nH]1`, the Ki was > 2.51 µM (inactive) in [3], > 3.98 µM (inactive) on Activin receptor type-1, > 2.51 µM (inactive) in assay [9] and > 2.51 µM (inactive) in [10].

Consider `COc1ccnc(N2CCN(C(=O)c3ccc(Cl)cc3)CC2)c1`, for which the AC50 is 96.1 µM (active) with NIH3T3 and 30.4 µM (active) in the assay on Candida albicans.

Take `COC(=O)CCC(=O)Nc1sc2c(c1C#N)CCCC2`: the EC50 in assay [11] is 14 µM (active).

Regarding `CC(C)C(=O)Nc1ccc(-c2nc3cc(Cl)ccc3o2)cc1`, the IC50 in assay [12] was > 99 µM (inactive); on Caspase-3 [13] it was 23.7 µM (active); in assay [14] it was > 99 µM (inactive); in [15] it was 2.66 µM (active).

As usually defined, the IC50 is the concentration that inhibits the measured activity by half. What is called EC50 is the concentration giving half of the maximal effect. For orientation: Ki means the equilibrium dissociation constant of an inhibitor or competing ligand from its target. Broadly, the AC50 is the concentration giving half of the maximal activity seen.
